A value given as a limit tells only on which side of the number the result lay.

A short description of data set [1]: Mouse Acute Oral Toxicity (LD50). The conditions noted are these: in vivo, oral by stomach tube, single dose, mice observed for deaths over 14 days. As for the experimental part:
B) Mouse Acute Oral Toxicity (LD50)
Protocol: The test material is suspended in an aqueous vehicle containing carboxymethyl cellulose. A volume of 10 ml/kg body weight is used for each dose. The test material is given orally by stomach tube to 24 male Swiss-Webster mice, 6 per group, on the first day of the test, using doses of 250, 500, 1000 and 2000 mg./kg. body weight of test compound. Another group of 6 mice, receiving the vehicle only, serve as the control. The mice are observed for deaths over a 14-day period.

The next data set concerns Albino rats. Description: Heat Induced Dermal Trauma Assay. The data set is classed as in vivo. The settings on record: topical in ethanol, treatment 0 post burn, skin disc weighed 3 hours later, 6 rats, control 500.7±13.6. As for the experimental part:
A) Heat Induced Dermal Trauma Assay ,
Test Animal: Albino rats, 120-140 g.
Procedure: The ventral area of the rats is shaved and depilated with a commercially available depilatory on the afternoon of the day prior to trauma. (The depilatory is applied for 15 minutes and then removed by washing with water.) The following day, a 25 mm diameter circle is traced on the abdomen beneath the sternum with a colored pen. A brass stamp of the same size, through which hot water (53°C) is circulated, is firmly applied to the center of the colored outline for 45 seconds while the rats are lightly anesthetized with ether. The test materials in ethanol are administered topically to the tramatized area immediately after withdrawing the stamp. The animals are sacrificed 3 hours later, at which time the ventral skin is removed and a piece of skin form the center of the marked area is punched out with a No. 10 cork bore and weighed.
End Point: The weight in mg of the inflammed piece of skin which is removed from the marked area with the cork bore.

What is called LD50 is the dose expected to kill half of the subjects tested. Consider `O=C(O)Cc1ccc2c(c1)[S+]([O-])Cc1ccccc1C2=O` (stereo not shown) [6,11-dihydrodibenzo-[b.e]-thiepin-11-one-3-acetic S-oxide], for which the LD50 at 336 h in data set [1] was greater than 2000 mg/kg.
In the case of `O=C(O)Cc1ccc2c(c1)SCc1cc(Cl)ccc1C2=O` [8-chloro-6,11-dihydrodibenzo-[b.e.]-thiepin-11-one-3-acetic acid], the “Mean Disc. Wt. mg.± S.E.” value with Albino rats (dose 0.006 mg.) came out at 296.8 ± 21.8 mg; in the data set with Albino rats (dose 0.025 mg.), 218.8 ± 6.5 mg; with Albino rats (dose 0.1 mg.), 201.4 ± 12.0 mg; in the data set on Albino rats (dose 0.4 mg.) it was 147.2 ± 10.2 mg. In addition, the LD50 at 336 h in data set [1] was roughly 300 mg/kg.
Consider `COc1ccc2c(c1)CSc1cc(CC(=O)O)ccc1C2=O` [8-methoxy-6,11-dihydro-dibenzo-[b.e.]-thiepin-11-one-3-acetic acid], for which the “Mean Disc. Wt. mg.± S.E.” value in the data set on Albino rats (dose 0.006 mg.) is 279.6 ± 13.17 mg; in the data set with Albino rats (dose 0.025 mg.), 241.6 ± 7.56 mg; in the data set with Albino rats (dose 0.1 mg.) it was 197.5 ± 25.07 mg; in the data set with Albino rats (dose 0.4 mg.), 177.9 ± 18.98 mg.

The values above are taken from patent publication EP0005055A2, “6,11-Dihydrodibenzo-thiepin-11-ones and their S-oxides, methods for their preparation and pharmaceutical compositions containing them” (SYNTEX (U.S.A.) INC., priority 1978, dated 1979).
